From patent publication US20080075786A1, “Antimicrobial agents derived from cream” (Universite de Montreal, priority 2006, published 2008)
Where two headings read alike, the source gives them in different places.

Tests used:
[1] = tested on: Candida albicans SC5314 strain; assay: Germination inhibition assay (antihyphal growth activity); assay type: cell-based; conditions: for activity at inhibiting C. albicans germination: individual commercial free fatty acids, highest concentration used 81 μM
Experimental: The Candida albicans SC5314 strain (Fonzi, W. A. and Irwin, M. Y. 1993. Isogenic strain construction and gene mapping in Candida albicans. Genetics 134: 717-728.) was used to investigate the antihyphal activity of whey cream lipids. This strain was routinely grown as yeast cells at 30° C. in YPD medium (1% yeast extract, 2% peptone, 2% dextrose). Germination was induced by incubating cells in dextrose-free Sabouraud (Difco; Joshi, K. R., Gavin, J. B., and Bremner, D. A. 1973. The formation of germ tubes by Candida albicans in various peptone media. Sabouraudia. 11: 259-262.) at 37° C. in 96-wells microtiter plates (Costar 3595). Briefly, cells from fresh YPD cultures were harvested and washed twice with sterile water. Washed cells were suspended in dextrose-free Sabouraud at a density of 5×10^3 cells/ml and then immediately distributed to microtiter wells containing an equal volume of dextrose-free Sabouraud supplemented with different concentrations of lipids. After 15 h incubation at 37° C. in an atmospheric incubator without agitation, cells were washed and fixed with a fresh 1% formaldehyde solution. The ability of lipids to inhibit germination was determined by microscopic observations.

[2] = tested on: Candida albicans ZK3379 strain (CAI-4 HWP1-lacZ); assay: C. albicans HWP1-lacZ beta-galactosidase and XTT assays (kinetics of germination inhibition in hyphae inducing media); assay type: cell-based; conditions: for germ tube emergence and elongation: all inducing conditions tested (dextrose-free Sabouraud, Lee's, Spider, HFM7), 0-6 h (FIG. 2)
Experimental: Candida albicans ZK3379 strain (CAI-4 HWP1-lacZ; Hogan, D A, Vik A, Kolter R (2004). A Pseudomonas aeruginosa quorum-sensing molecule influences Candida albicans morphology. Mol Microbiol 54: 1212-1223.) was used for beta-galactosidase and XTT assays. Cells from this strain were grown in YPDA at 30° C. to a density of about 1×10^8 cells/ml (hemacytometer). These late exponentially growing cells were then washed twice with water and kept on ice until used. Germination was induced by incubating cells (final density of 5×10^5 cells/ ml) at 37° C. in 2.5 ml of either dextrose-free Sabouraud (Joshi et al., 1973), Lee's (Lee K L, Buckley H R, Campbell C C (1975). An amino acid liquid synthetic medium for the development of mycelial and yeast forms of Candida albicans. Sabouraudia 13: 148-153, Spider (Liu H, Kohler J, Fink Gr (1994). Suppression of hyphal formation in Candida albicans by mutation of a STE12 homolog. Science 266: 1723-1726 or Hypha-Forming Media (Biswas S K, Yokoyama K, Kamei K, Nishimur K, Miyaji M (2001) Inhibition of hyphal growth of Candida albicans by activated lansoprazole, a novel benzimidazole proton pump inhibitor Med Mycol 39: 283-285.), supplemented with FFAs. All lipids were dissolved in ethanol. Assays were performed in duplicate in 24-wells mictotiter plates (Costar 3526) without agitation. After appropriate incubation times (i.e. 0, 2, 4 or 6 h), microtiter plates were centrifuged for 5 min at 2000 rpm (Jouan inc. CR3i) and supernatents, discarded. XTT assays were done immediately and essentially as described (Honraet K, Goetghebeur E, Nelis H J (2005). Comparison of three assays for the quantification of Candida biomass in suspension and CDC reactor grown biofilms. J Microbiol Methods 63: 287-295). For beta-galactosidase assays, microtiter plates were frozen at −80° C. and processed later as described (Kippert F (1995). A rapid permeabilization procedure for accurate quantitative determination of beta-galactosidase activity in yeast cells. FEMS Microbiol Lett 128: 201-206; Hogan et al., 2004) but directly in microtiters plates. Absorbances were measured in 96-well microtiters plates using a microtiter plate reader (Microplate Reader MR600), equipped with filters of 410 nm (beta-galactosidase) and 490 nm (XTT), respectively.
As inhibition of germination of C. albicans by molecules could be the result of early and/or late blocking events, a more comprehensive analysis of the activity of free fatty acids was performed using multiple time points and other germ tube inducing media. Therefore, germination was monitored at 0, 2, 4 and 6 h in dextrose-free Sabouraud, Lee's, Spider and HFM7 (i.e. serum) media using the C. albicans HWP1-lacZ assay: beta-galactosidase measurements should reflect the morphological change from yeast cells to hyphal growth (Hogan et al., 2004). beta-galactosidase results were normalized using the XTT assay (Honraet et al., 2005) to correct for biomass increase. Microscopic observations of cells after 6 h incubation are also presented for each inducing conditions and correlated with beta-galactosidase data (FIG. 2).

[3] = tested on: C. albicans yeast cells; conditions: 10 mM; cited from earlier work
[4] = tested on: mammalian cells; assay: Toxicity for mammalian cells in vitro; assay type: cell-based; conditions: thousand fold less concentrated solution than 10 mM; Bergsson et al., 2001; data not shown
[5] = tested on: C. albicans SC5314 strain; assay: Antifungal assay against C. albicans (optical density at 630 nm); assay type: cell-based, Candida albicans; conditions: Candida albicans, SC5314, 40 h, dextrose-free Sabouraud, 37° C., commercial FFA
Experimental: (§1) Fractionation of Blackcurrant Seed Oil. Journal of the American Oil Chemists Society 65: 755-760). […] Under constant stirring, the mixture was heated to 75° C., or until it became clear, and then cooled slowly to 2° C. After completion of urea crystallization at 2° C. (15 h), the UFFA enriched methanol phase was separated from the urea crystals by centrifugation (5 min) at 1000×g. […] Yields were determined gravimetrically. […] UV detection was used to monitor effluent at 215 nm. Water (10 ml) was added to each of the 45 collected HPLC fractions, and they were then extracted three times with hexane (3×10 ml). […] Antifungal assay using commercial FFA were done in quadruplicates. The antifungal activity was evaluated in 96-well microtiter plates (Costar 3595) using Sabouraud as incubating medium for A. fumigatus and dextrose-free Sabouraud for C. albicans. Spores of A. fumigatus (Jeanine Joly, Université de Montréal) were germinated at 25° C. on slant agar Sabouraud media. They were harvested by washing vigorously slant cultures with 5 ml of 0.9% NaCl. Coarse debris were removed by filtrating the Aspergillus spores suspension through a sterile cotton plugs inserted into a Pasteur pipet. Monodisperse spores suspensions were obtained following brief sonications in a water bath sonicator (Branson 1210). […] Blastospores of the C. albicans SC5314 strain were prepared as for germination inhibition assays (see above). […] Wells were washed three times with Sabouraud before optical reading.

[6] = tested on: A. fumigatus; assay: Antifungal assay against A. fumigatus (optical density at 630 nm); assay type: cell-based
Experimental: as §1

[7] = Cytotoxicity assay (LDH release); conditions: human
Experimental: Cytotoxicity was evaluated using Peripheral Blood Mononuclear cells (PBMC) of volunteers donors (Royal Victoria Hospital, Montreal). These cells were purified by the ficoll-Paque PLUS according to the manufacturer (Amersham-Bioscience). PBMC were used at a density of 100 000 cells/ml in RPMI 1640 (Sigma) supplemented with 10% heat-inactivated fetal bovine serum, 0.3 g/L of L-glutamine, 2 g/L sodium carbonate, 100 U/ml of penicillin and 100 μg/ml of streptomycin (Sigma). Assays were done in 96-well microtiter plates (Costar 3595) and the cytotoxicity was evaluated after 24 hours of incubation at 37° C. in a 5% CO2 atmospheric incubator using the LDH Cytotoxicity detection kit, according to the manufacturer (Roche Diagnostic). […] FFA were diluted in ethanol (96%) and no more than 1% ethanol (final concentration) was used in assays. Ethanol (1%) was used as negative control.
This method measures the release of lactate dehydrogenase (LDH) from the cytosol of damaged cells into the supernatant (Roche Diagnostic).

[8] = tested on: C. albicans reporter strain ZK3379 (HWP1-lacZ); conditions: for Relative beta-galactosidase expression (filamentous growth): 18 h, 37° C., percentage of control cultures without fatty acids
Experimental: The effects of fatty acids gamma-linolenic acid and alpha-linolenic acid on filamentous growth of Candida albicans were determined in a filamentation assay. C. albicans reporter strain ZK3379 (HWP1-lacZ; Hogan et al., 2004) was propagated in yeast extract-peptone-dextrose (YPD) for 24 h at 30° C. Prior to the assay, cells were washed twice with phosphate-buffered saline (PBS 1×). Flasks (125 ml) containing 10 ml of prewarmed RPMI 1640/20 mM MOPS (pH 7.0) were inoculated with washed cells at a final concentration of 10^6 cells per ml. Working solutions of fatty acids (25 mM and 6.25 mM) were prepared freshly in ethanol 70%. Fatty acids were diluted in medium at final concentrations of 100 μM and 25 μM. An equal volume (40 μl) of ethanol 70% was added to control cultures. In all cultures, the final concentration of ethanol was 0.4% (v/v). Flasks were incubated at 37° C. for 18 h with shaking (ca. 200 RPM). Cells were collected by filtration (Millipore, 0.45 μm) and washed with PBS 1×. beta-galactosidase was assayed according to the method of Rose and Botstein (1983), where crude protein extracts are prepared and the activity is normalized to the amount of protein assayed. Relative amounts of beta-galactosidase activity were used as a measure of the amount of filamentous growth.

[9] = Candida albicans, SC5314, commercial free fatty acids, complete inhibition of germination, 15 h, 37° C., gravimetrical quantification, read-out: MIC, antihyphal growth activity of individual free fatty acids
[10] = Candida albicans, SC5314, same MIC in μg/ml (in brackets), commercial free fatty acids, gravimetrical quantification, read-out: MIC, antihyphal growth activity of individual free fatty acids
[11] = commercial free fatty acids, complete inhibition of germination, 15 h, 37° C., gravimetrical quantification, read-out: MIC, antihyphal growth activity of individual free fatty acids
[12] = Candida albicans, SC5314, 15 h, read-out: MIC, antihyphal growth activity of individual free fatty acids
[13] = Candida albicans, SC5314, read-out: MIC, antihyphal growth activity of individual free fatty acids

| Molecule | MIC [1, 9] | MIC [1, 10] | MIC [1, 11] | activity at inhibiting C. albicans germination [1] | MIC [1, 12] | MIC [1, 13] | also measured |
| --- | --- | --- | --- | --- | --- | --- | --- |
| CCCCC/C=C\C/C=C\CCCCCCCC(=O)O [18:2(n-6), linoleic acid] | 81 µM | 22.7 µg/mL | 81 µM |  |  |  | germ tube emergence and elongation [2]: produced germ tubes (2-4 h), but their further elongation was blocked |
| CCCCCCCCCCCC(=O)O [12:0, lauric acid] | 9 µM | 1.8 µg/mL | 9 µM |  |  |  | killing C. albicans yeast cells [3]: highly active; toxicity for mammalian cells in vitro [4]: not toxic; germ tube emergence and elongation [2]: completely inhibited the emergence of germ tubes |
| CC(C)CCCCCCCCCC(=O)O [12-methyldodecanoic acid (C13:0 i)] |  |  |  |  |  |  | IC50 [5]: ~49 µM; IC50 ([6]; Aspergillus fumigatus, 40 h, Sabouraud, 30° C., commercial FFA): ~283 µM; CC50 at 24 h [7]: 70 µM |
| CCCCCCCCCCCCCCC(=O)O [15:0, pentadecanoic acid, reference compound] | > 81 µM | > 19.6 µg/mL |  | inactive |  |  |  |
| CCCCCCCC/C=C\CCCCCCCC(=O)O [18:1(n-9), oleic acid, reference compound] |  |  |  | no or weak activity | > 81 µM | > 18.5 µg/mL | activity against the germination of C. albicans ([2]; all inducing media but HFM7): weak or no activity |
| CCCCC/C=C\C/C=C\C/C=C\CCCCC(=O)O [gamma-linolenic acid (C18:3n-6), gamma-linolenic acid] |  |  |  |  |  |  | IC50 [5]: 2.34 µM; IC50 ([6]; Aspergillus fumigatus; Sabouraud, 30° C., 40 h; commercial FFA): 13.4 µM; Relative beta-galactosidase expression (filamentous growth) ([8]; 25 μM): 5.9 (±6.8) %; Relative beta-galactosidase expression (filamentous growth) ([8]; 100 μM): 0.5 (±0.7) %; germination of C. albicans ([8]; 100 μM, RPMI 1640/20 mM MOPS (pH 7.0), HWP1-LacZ strain): completely inhibited; antifungal activity in RPMI 1640/20 mM MOPS media ([8]; 100 μM, data not shown): not detected; CC50 at 24 h ([7]; Toxicity (TC50) PBMCs): 41 µM |
| conjugated linoleic acid [18:2(CLA 9c-11t)] |  |  | 9 µM |  |  |  | MIC, antihyphal growth activity of individual free fatty acids ([1]; same MIC in μg/ml (in brackets), commercial free fatty acids, gravimetrical quantification): 2.52 µg/mL; germ tube emergence and elongation [2]: produced germ tubes (2-4 h), but their further elongation was blocked |
| CCCCCCCCCCCCCC(=O)O [14:0, myristic acid, reference compound] |  |  |  | inactive | > 81 µM | > 18.5 µg/mL |  |
| CCCCCCCCCCCCCCCC(=O)O [16:0, palmitic acid, reference compound] |  |  |  | inactive | > 81 µM | > 20.8 µg/mL |  |
| CCCCCCCCCCCCCCCCCC(=O)O [18:0, stearic acid, reference compound] |  |  |  | inactive | > 81 µM | > 23 µg/mL |  |
| CCCCCCCCCCCCCCCCC(=O)O [17:0, heptadecanoic acid, reference compound] | > 81 µM | > 21.9 µg/mL |  | inactive |  |  |  |
| CCCCCC/C=C\CCCCCCCC(=O)O [16:1(n-7), palmitoleic acid] | 9 µM | 2.29 µg/mL | 9 µM |  |  |  | toxicity for C. albicans blastospores ([2]; Lee's medium, data not shown): toxic; appearance of germ tubes ([2]; Spider and HFM7 media): partially inhibited the appearance of germ tubes |
| CCCCC/C=C\C/C=C\C/C=C\C/C=C\CCCC(=O)O [20:4(n-6), arachidonic acid] | 27 µM | 8.22 µg/mL | 27 µM |  |  |  | appearance of germ tubes ([2]; Spider and HFM7 media): partially inhibited the appearance of germ tubes; appearance of germ tubes ([2]; dextrose-free Sabouraud and Lee's inducing media): strongly inhibited the appearance of germ tubes |
